How the values were obtained:
DU-145 = assay: NCI-60 in vitro tumor cell screen, DU-145; type: cell-based; conditions: Homo sapiens; DU-145, Prostate Cancer
Procedure: (§1) All the synthesized thiazoles 1a–l, 2a–j, 3a–f and 4a–f were evaluated by the National Cancer Institute (Bethesda MD) for cytotoxicity against the NCI-60 cell line panel using standard protocols. Initially, all derivatives were tested at a single dose (10^−5 M) on the full panel of approximately 60 human tumor cell lines derived from 9 human cancer cell types, that have been grouped in disease sub-panels including leukemia, non-small-cell lung, colon, central nervous system (CNS), melanoma, ovarian, renal, prostate and breast cancers (data not shown). Compounds 1k and 4c were further selected for full evaluation at five concentration levels (10^−4–10^−8 M).
(§2) The antitumor activity of compounds 1k and 4c was given by three parameters for each cell line: GI50 (GI50 is the molar concentration of the compound that inhibits 50% net cell growth), TGI (TGI is the molar concentration of the compound leading to total inhibition of net cell growth), and LC50 (LC50 is the molar concentration of the compound that induces 50% net cell death). The average values of mean graph midpoint (MG_MID) were calculated for each of these parameters.

MDA-MB-231/ATCC = assay: NCI-60 in vitro tumor cell screen, MDA-MB-231/ATCC; type: cell-based; conditions: Homo sapiens, Breast Cancer
Procedure: as §1, §2

SK-OV-3 = assay: NCI-60 in vitro tumor cell screen, SK-OV-3; type: cell-based; conditions: Homo sapiens; SK-OV-3, Ovarian Cancer
Procedure: as §1, §2

RPMI-8226 = assay: NCI-60 in vitro tumor cell screen, RPMI-8226; type: cell-based; conditions: Homo sapiens; RPMI-8226, Leukemia
Procedure: as §1, §2

T-47D = assay: NCI-60 in vitro tumor cell screen, T-47D; type: cell-based; conditions: Homo sapiens, T47D, Breast Cancer
Procedure: as §1, §2

HCT-116 = assay: NCI-60 in vitro tumor cell screen, HCT-116; type: cell-based; conditions: Homo sapiens; HCT-116, Colon Cancer; measured by NCI after 72 h treatment
Procedure: as §1, §2

NCI-H23 = assay: NCI-60 in vitro tumor cell screen, NCI-H23; type: cell-based; conditions: Homo sapiens; NCI-H23, Non-Small Cell Lung Cancer
Procedure: as §1, §2

HT29 = assay: NCI-60 in vitro tumor cell screen, HT29; type: cell-based; conditions: Homo sapiens, HT-29; HT29, Colon Cancer
Procedure: as §1, §2

CAKI-1 = assay: NCI-60 in vitro tumor cell screen, CAKI-1; type: cell-based; conditions: Homo sapiens; CAKI-1, Renal Cancer
Procedure: as §1, §2

KM12 = assay: NCI-60 in vitro tumor cell screen, KM12; type: cell-based; conditions: Homo sapiens; KM12, Colon Cancer
Procedure: as §1, §2

U251 = assay: NCI-60 in vitro tumor cell screen, U251; type: cell-based; conditions: Homo sapiens, U-251; U251, CNS Cancer
Procedure: as §1, §2

A549/ATCC = assay: NCI-60 in vitro tumor cell screen, A549/ATCC; type: cell-based; conditions: Homo sapiens, Non-Small Cell Lung Cancer
Procedure: as §1, §2

HOP-62 = assay: NCI-60 in vitro tumor cell screen, HOP-62; type: cell-based; conditions: Homo sapiens; HOP-62, Non-Small Cell Lung Cancer
Procedure: as §1, §2

OVCAR-3 = assay: NCI-60 in vitro tumor cell screen, OVCAR-3; type: cell-based; conditions: Homo sapiens; OVCAR-3, Ovarian Cancer
Procedure: as §1, §2

OVCAR-4 = assay: NCI-60 in vitro tumor cell screen, OVCAR-4; type: cell-based; conditions: Homo sapiens; OVCAR-4, Ovarian Cancer
Procedure: as §1, §2

[1] = tested on: intestinal normal-like differentiated Caco-2 cells; assay: MTT viability assay, differentiated Caco-2 cells, 24 h; type: cell-based, human; conditions: range 5 to 100 μM
Procedure: (§3) Nortopsentin analogues, prepared as described above, were dissolved in dimethyl sulfoxide (DMSO) and then diluted in culture medium to have a DMSO concentration not exceeding 0.1%. HCT-116 and Caco-2 cell lines were purchased from American Type Culture Collection, Rockville, MD, USA and DMEM supplemented with […], […] bovine serum (FBS), penicillin (100 U/mL), streptomycin (100 μg/mL) and gentamicin (5 μg/mL). Cells were maintained in log phase by seeding twice a week at a density of 3 × 10^8 cells/L in humidified 5% CO2 atmosphere, at 37 °C. In all experiments, HCT-116 cells were made quiescent through overnight incubation before treatment with tested compounds or vehicle alone (control cells), while Caco-2 cells were treated 15 days after confluence, at which time the cells are differentiated in normal intestinal-like cells. […]
(§4) Cytotoxic activity of the nortopsentin derivatives 1k and 4c was determined by the colorimetric assay based on the reduction of […] (MTT) to purple formazan by mitochondrial dehydrogenases. […] Cells were incubated 2 h at 37 °C, then medium was discarded by centrifugation, formazan blue formed in the cells dissolved in DMSO, and absorbance measured at 570 nm in a microplate reader (Bio-RAD, Hercules, CA, USA). […] GI50 was calculated by the curve of percent viability vs. concentration. […]

NCI/ADR-RES = assay: NCI-60 in vitro tumor cell screen, NCI/ADR-RES; type: cell-based; conditions: Homo sapiens, Ovarian Cancer
Procedure: as §1, §2

NCI-H522 = assay: NCI-60 in vitro tumor cell screen, NCI-H522; type: cell-based; conditions: Homo sapiens; NCI-H522, Non-Small Cell Lung Cancer
Procedure: as §1, §2

MDA-MB-468 = assay: NCI-60 in vitro tumor cell screen, MDA-MB-468; type: cell-based; conditions: Homo sapiens; MDA-MB-468, Breast Cancer
Procedure: as §1, §2

HOP-92 = assay: NCI-60 in vitro tumor cell screen, HOP-92; type: cell-based; conditions: Homo sapiens; HOP-92, Non-Small Cell Lung Cancer
Procedure: as §1, §2

RXF393 = assay: NCI-60 in vitro tumor cell screen, RXF393; type: cell-based; conditions: Homo sapiens, RXF 393; RXF393, Renal Cancer
Procedure: as §1, §2

SK-MEL-5 = assay: NCI-60 in vitro tumor cell screen, SK-MEL-5; type: cell-based; conditions: Homo sapiens; SK-MEL-5, Melanoma
Procedure: as §1, §2

SF-268 = assay: NCI-60 in vitro tumor cell screen, SF-268; type: cell-based; conditions: Homo sapiens; SF-268, CNS Cancer
Procedure: as §1, §2

[2] = tested on: HCT-116 colorectal carcinoma cells; assay: MTT viability assay, HCT-116 cells, 24 h; type: cell-based; conditions: Homo sapiens, 5–100 μM, read-out: GI50 after 24 h treatment
Procedure: as §3, §4

A498 = assay: NCI-60 in vitro tumor cell screen, A498; type: cell-based; conditions: Homo sapiens; A498, Renal Cancer
Procedure: as §1, §2

EKVK = assay: NCI-60 in vitro tumor cell screen, EKVK; type: cell-based; conditions: Homo sapiens, Non-Small Cell Lung Cancer
Procedure: as §1, §2

MDA-MB-435 = assay: NCI-60 in vitro tumor cell screen, MDA-MB-435; type: cell-based; conditions: Homo sapiens; MDA-MB-435, Melanoma
Procedure: as §1, §2

SMILES | GI50 (DU-145) | GI50 (MDA-MB-231/ATCC) | GI50 (SK-OV-3) | GI50 (RPMI-8226) | GI50 (T-47D) | GI50 (HCT-116) | GI50 (NCI-H23) | GI50 (HT29) | GI50 (CAKI-1) | GI50 (KM12) | GI50 (U251) | GI50 (A549/ATCC) | GI50 (HOP-62) | GI50 (OVCAR-3) | GI50 (OVCAR-4) | effect on cell viability [1] | GI50 (NCI/ADR-RES) | GI50 (NCI-H522) | GI50 (MDA-MB-468) | GI50 (HOP-92) | also measured
Cn1cc(-c2csc(-c3c[nH]c4ncccc34)n2)c2cc(Br)cnc21 [Compound 1k, 5-Bromo-1-methyl-3-[2-(1H-pyrrolo[2,3-b]pyridin-3-yl)-1,3-thiazol-4-yl]-1H-pyrrolo[2,3-b]pyridine] | 3510 nM | 3020 nM | 3.25 µM | > 100 µM | 1800 nM | 2910 nM | 2800 nM | 6.75 µM | 1560 nM | 5.7 µM | 2700 nM | 2.59 µM | 2390 nM | 2.91 µM | 2030 nM | did not affect the differentiated Caco-2 cell viability | 3.88 µM | 4.86 µM | 810 nM | 5.03 µM | GI50 (RXF393): 2050 nM; GI50 (SK-MEL-5): 2050 nM; GI50 (SF-268): 6.01 µM; GI50 [2]: 33.5 ± 2.31 µM; GI50 (A498): 10.9 µM; GI50 (EKVK): 1270 nM; GI50 (MDA-MB-435): 3.17 µM
Clc1nccc2c(-c3csc(-c4c[nH]c5ccc(Br)cc45)n3)c[nH]c12 [Compound 4c, 3-[2-(5-Bromo-1H-indol-3-yl)-1,3-thiazol-4-yl]-7-chloro-1H-pyrrolo[2,3-c]pyridine] | 1760 nM | 1680 nM | 2.78 µM | 4.03 µM | 3120 nM | 2350 nM | 2420 nM | 2.66 µM | 1960 nM | 2.15 µM | 2050 nM | 3.83 µM | 2110 nM | 3.45 µM | 3250 nM | did not affect the differentiated Caco-2 cell viability | 2.71 µM | 2.28 µM | 1180 nM | 2.43 µM | GI50 (RXF393): 1480 nM; GI50 (SK-MEL-5): 2610 nM; GI50 (SF-268): 4.06 µM; GI50 [2]: 13.2 ± 0.95 µM; GI50 (A498): 1.56 µM; GI50 (EKVK): 3110 nM; GI50 (MDA-MB-435): 3.43 µM

Source: paper PMC4306947, “Synthesis and Antiproliferative Activity of Thiazolyl-bis-pyrrolo[2,3-b]pyridines and Indolyl-thiazolyl-pyrrolo[2,3-c]pyridines, Nortopsentin Analogues” (Marine Drugs, 2015)
